From US10238619B1, “Composition and method of using the same” (priority 2017, dated 2019) come the findings set out here.

Test [1] concerns persistent (biofilm) form of Borrelia burgdorferi. Briefly: effect on biofilm-like colonies, crystal violet staining. The test is classed as cell-based, Borrelia burgdorferi B31. The settings on record: for efficacy against biofilm compared with combinations (Mix 1 and Mix 2): individual ingredient 0.075 mg/ml; for susceptibility of biofilm: 0.3 mg/ml, 72 hours. As for the experimental part:
(§1) Two Borrelia species, namely, Borrelia burgdorferi and Borrelia garinii were tested in this study. Low passage isolates of the B31 strain of B. burgdorferi and CIP103362 strain of B. garinii were obtained from the American Type Culture Collection (Manassas, Va.). The stocks of both species were cultured in commonly used conditions, i.e. medium such as Barbour-Stoner-Kelly H (BSK-H) supplemented with 6% rabbit serum (Sigma, St Louis, Mo.) without antibiotics at 33° C. with 5% CO2, in sterile screw-cap 15 mL polypropylene tubes with or without gentile shaking depends on type of experiment. B31 strain is an isolate from Ixodes dammini whereas CIP103362 strain is an isolate from Ixodes ricinus. Both strains are well known human pathogenic factors of Lyme disease. So far, Borrelia burgdorferi has been found in ticks from North America and Eurasia, while Borrelia garinii only in ticks in Eurasia.
(§2) The strains of B. burgdorferi and B. garinii were prepared for testing as described in the art (Sapi et al., 2011). Briefly, the strains were activated from original cryobank vials and inoculated into 10 mL BSK-H compete medium, and maintained at 33° C. For generation of homogeneous cultures of B. burgdorferi or B. garinii, bacterial cells were inoculated and maintained in a shaking incubator at 33° C. and 250 rpm, where there is no biofilm formation (Sapi et al., 2011; supported by own observation). For generation of biofilm-like colonies of B. burgdorferi or B. garinii, bacterial cells were inoculated in four-well chambers (BD Biosciences, Sparks, Md.) coated with rat-tail collagen type I and incubated for 1 week without shaking.
(§3) Evaluation of test compounds/mixtures on bacterial biofilm. Qualitative effect of the individual test compounds and their mixtures against biofilm-like colonies of B. burgdorferi and B. garinii was evaluated using commonly used and well accepted crystal violet (CV) staining method, according to protocol provided by Sapi et al. Briefly, 1×10^7 bacterial cells/mL from homogeneous cultures of spirochetes were grown on extracellular matrix proteins (i.e., collagen type I) coated four-well chambers and incubated for 1 week.
(§4) After the 1 week of incubation, biofilm-like colonies were treated with various compounds/mixtures. Control wells were treated with ethanol (i.e., 0.075-0.3 mg/ml) alone. For doxycycline, as a positive control, the final used concentration was 0.03% (v/v). The chambers were then incubated at 33° C. for 72 hours. The whole experiment was repeated three times for each strain and each concentration. Next, all wells were fixed with 500 μL of cold methanol-formalin (1:1) for 30 minutes and stained with 1 mL of crystal violet (0.1%) for 10 minutes. The biofilm-like colonies were carefully washed three times with 1×PBS and 1 mL of methanol was added to each well to extract a dye, which was measured at 595 nm wavelength.

Test [2] has as its system persistent (biofilm) form of Borrelia garinii. The test is described as above. The test is classed as cell-based, Borrelia garinii CIP103362. Particulars: for efficacy against biofilm compared with combinations (Mix 1 and Mix 2): individual ingredient 0.075 mg/ml; for susceptibility of biofilm: 0.3 mg/ml, 72 hours. On the procedure: as §1, §2, §3, §4
The subject of test [3] is active (spirochete) form of Borrelia burgdorferi. Nature of the test: bacteriostatic/bactericidal effect on spirochetes, LIVE/DEAD BacLight (SYTO9/IP) fluorescence. Type of test: cell-based, Borrelia burgdorferi B31. The settings on record: individual compound 0.3 mg/ml. On the procedure:
as §1, with “So far, Borrelia burgdorferi has been found in ticks from North America and Eurasia, while Borrelia garinii only in ticks in Eurasia.” left out
(§5) Evaluation of bacteriostatic and bactericidal effect of individual test compounds and their mixtures on test microorganisms. To determine what compound and/or mixture will have the bacteriostatic and/or bactericidal effect a fluorescence method was used according to Sapi et al. Briefly, 5×10^6 bacterial cells/mL of the homogenous bacterial suspension was inoculated into each sterile 1.8 mL test tightly caps screwed tubes containing 1 mL BSK-H medium, supplemented with the test compound/mixture of interest. […] The tubes were then incubated at 33° C. and viability was monitored at regular intervals for up to 72 hours. […]

Test [4] relates to active (spirochete) form of Borrelia garinii. The test is described as above. Type of test: cell-based, Borrelia garinii CIP103362. Particulars: individual compound 0.3 mg/ml. On the procedure: as §1, with “So far, Borrelia burgdorferi has been found in ticks from North America and Eurasia, while Borrelia garinii only in ticks in Eurasia.” left out
as §5

Turning to `C=C(C)[C@@H]1CC=C(C)C(=O)C1` [R-carvone], the “efficacy against biofilm compared with combinations (Mix 1 and Mix 2)” value in test [1] and in test [2] was “lower efficacy against biofilm than their combinations” in each case.

For `CC(C)=CCCC(C)=CC=O` [citral], in test [1], the susceptibility of biofilm result is recorded as “susceptible”; the “efficacy against biofilm compared with combinations (Mix 1 and Mix 2)” value is recorded as “lower efficacy against biofilm than their combinations”. In test [2], the susceptibility of biofilm entry was “susceptible”; the “efficacy against biofilm compared with combinations (Mix 1 and Mix 2)” value is reported as “lower efficacy against biofilm than their combinations”.

Take `C=CCc1ccc(O)c(OC)c1` [eugenol]: the bactericidal effect in test [3] (after 6 hours of incubation) is 50%; in test [3] (after 24 hours of incubation), 100%; in test [4] (after 6 hours of incubation), 50%; in test [4] (after 24 hours of incubation) it was 100%. Besides, the susceptibility of biofilm entry in test [1] and in test [2] was “susceptible” in each case. Besides, the “efficacy against biofilm compared with combinations (Mix 1 and Mix 2)” value in test [1] and in test [2] was “lower efficacy against biofilm than their combinations” throughout.

For the compound `CCCCC/C=C\C/C=C\CCCCCCCC(=O)O` [linoleic acid], the “efficacy against biofilm compared with combinations (Mix 1 and Mix 2)” value in test [1] and in test [2] was “lower efficacy against biofilm than their combinations” each time.
